The values that follow come from US20260317344A1, “EGFR INHIBITORS FOR TREATING DISEASE” (BLOSSOMHILL THERAPEUTICS, INC., priority 2023, published 2026).

Assay type in all cases: cell-based
Assay [1] deals with HCC827 cells. Put plainly: 5-Day CellTiter Glo (CTG) cell proliferation assay, HCC827. Conditions: Homo sapiens; HCC827 cells (d746-750 EGFR), 5-day CTG proliferation, 120 hours; read-out: HCC827 IC50. As for the experimental part:
(§1) 5-Day CellTiter Glo (CTG) Cell Proliferation Assays (PC9, H1975, H827)
(§2) Cell proliferation assays were carried out in NSCLC cells with EGFR activation mutations. Both PC-9 cells and HCC827 cells (purchased from DSMZ) carry a Glu746-Ala750 deletion (d746-750) mutation in exon 19 of the EGFR gene and NCI-H1975 cells carry both L858R activation mutation and T790M gatekeeper mutation in the EGFR gene. One thousand PC-9, NCI-H1975 or HCC827 cells/100 μL per well were seeded in 96-well black plate with transparent bottom and then treated with indicated compounds in a 9-dose dilution series dispensed using TECAN d300e liquid dispenser. Cells were incubated with compounds for 120 hours at 37° C. and 5% CO2. Cell proliferation was measured using CellTiter-Glo 2.0 luciferase-based ATP detection assay (Promega, Madison, WI) at […] per well following the manufacturer's protocol. Plates were then read on a TECAN Sparks multimode microplate reader. Data was analyzed using GraphPad Prism 9 (GraphPad Software, San Diego, CA) to obtain IC50 values.
In general terms: In ATP-based viability assays light output follows the ATP content of the culture.

The test system of assay [2] is PC-9 cells. Put plainly: 5-Day CellTiter Glo (CTG) cell proliferation assay, PC-9. The settings on record: Homo sapiens; PC-9 cells (d746-750 EGFR), 5-day CTG proliferation, 120 hours; read-out: PC-9 IC50. As for the experimental part: as §1, §2
Assay [3] relates to NCI-H1975 cells. Put plainly: 5-Day CellTiter Glo (CTG) cell proliferation assay, NCI-H1975. Conditions: Homo sapiens; NCI-H1975 cells (L858R/T790M EGFR), 5-day CTG proliferation, 120 hours; read-out: H1975 IC50. Here is the method: as §1, §2

Each structure is given as a SMILES string.

For orientation: IC50 means the point on the concentration scale where inhibition reaches its midpoint. For the molecule `CCOc1nn([C@@H](C)CO)c2c1/C=C/c1n[nH]c3c(OC)nc(cc13)-c1c(C)nn(C)c1O[C@@H](C)CN(C)C2` [Ex. 96, (2S)-2-[(10S,17E)-16-ethoxy-20-methoxy-6,8,10,12-tetramethyl-2,8,10,11,12,13-hexahydro-14H-5,3-(azenometheno)tripyrazolo[3,4-f:3′,4′-j:4″,3″-n][1,4]oxazacyclopentadecin-14-yl]propan-1-ol], the figures for the IC50 in assay [1], in assay [2] and in assay [3] were 0.00297 µM, 0.0255 µM and 0.0272 µM, respectively.
In the case of `CCOc1nn([C@@H](C)CO)c2c1/C=C/c1n[nH]c3c(O)nc(cc13)-c1c(C)nn(C)c1O[C@@H](C)CN(C)C2` [Ex. 99, (10S,17E)-16-ethoxy-14-[(2S)-1-hydroxypropan-2-yl]-6,8,10,12-tetramethyl-2,10,11,12,13,14-hexahydro-8H-5,3-(azenometheno)tripyrazolo[3,4-f:3′,4′-j:4″,3″-n][1,4]oxazacyclopentadecin-20-ol], the IC50 in assay [1] came out at 0.0381 µM; in assay [2], 0.351 µM; in assay [3] it was 0.339 µM.
For `Cc1nn(C)c2c1-c1cc3c(n[nH]c3c(C)n1)/C=C/c1cnn([C@@H](C)CO)c1CN(C1CC1)C[C@H](C)O2` [Ex. 127, (2S)-2-[(10S,17E)-12-cyclopropyl-6,8,10,20-tetramethyl-2,8,10,11,12,13-hexahydro-14H-5,3-(azenometheno)tripyrazolo[3,4-f:3′,4′-j:4″,3″-n][1,4]oxazacyclopentadecin-14-yl]propan-1-ol], the IC50 in assay [1] was 0.00037 µM; in assay [2], 0.00126 µM; in assay [3], 0.00192 µM.
In the case of `Cc1nn(C)c2c1-c1cc3c(n[nH]c3c(C)n1)/C=C/c1cnn([C@@H](C)CO)c1CN(C1CC1)[C@H](C)CO2` [Ex. 128, (2S)-2-[(11R,17E)-12-cyclopropyl-6,8,11,20-tetramethyl-2,8,10,11,12,13-hexahydro-14H-5,3-(azenometheno)tripyrazolo[3,4-f:3′,4′-j:4″,3″-n][1,4]oxazacyclopentadecin-14-yl]propan-1-ol], the results for the IC50 in assay [1], in assay [2] and in assay [3] were 0.00332 µM, 0.017 µM and 0.0568 µM, respectively.
Turning to `CCOc1nn([C@@H](C)CO)c2c1/C=C/c1n[nH]c3cnc(cc13)-c1c(COC)nn(C)c1O[C@@H](C)CN(C)C2` [Ex. 130, (2S)-2-[(10S,17E)-16-ethoxy-6-(methoxymethyl)-8,10,12-trimethyl-2,8,10,11,12,13-hexahydro-14H-5,3-(azenometheno)tripyrazolo[3,4-f:3′,4′-j:4″,3″-n][1,4]oxazacyclopentadecin-14-yl]propan-1-ol], the IC50 was 0.00075 µM in assay [1], 0.00232 µM in assay [2] and 0.176 µM in assay [3].
The corresponding values for `CCOc1nn(C)c2c1/C=C/c1n[nH]c3c(C)nc(cc13)-c1c(C)nn(C)c1O[C@@H](C)CN(C(C)=O)C2` [Ex. 131, 1-[(10S,17E)-16-ethoxy-6,8,10,14,20-pentamethyl-2,8,10,11,13,14-hexahydro-12H-5,3-(azenometheno)tripyrazolo[3,4-f:3′,4′-j:4″,3″-n][1,4]oxazacyclopentadecin-12-yl]ethan-1-one] are 0.0605 µM, 0.353 µM and 0.671 µM.
On the same counts, the results for `CCOc1nn([C@@H](C)CO)c2c1/C=C/c1n[nH]c3c(C)nc(cc13)-c1c(C)nn(C)c1O[C@H](C)[C@@H](C)N(C)C2` [Ex. 132a, (2S)-2-[(11R,17E)-16-ethoxy-6,8,10,11,12,20-hexamethyl-2,8,10,11,12,13-hexahydro-14H-5,3-(azenometheno)tripyrazolo[3,4-f:3′,4′-j:4″,3″-n][1,4]oxazacyclopentadecin-14-yl]propan-1-ol] are 0.00041 µM, 0.00112 µM and 0.00077 µM.
With `CCOc1nn([C@@H](C)CO)c2c1/C=C/c1n[nH]c3c(C)nc(cc13)-c1c(C)nn(C)c1O[C@@H](C)[C@@H](C)N(C)C2` [Ex. 132b, (2S)-2-[(11R,17E)-16-ethoxy-6,8,10,11,12,20-hexamethyl-2,8,10,11,12,13-hexahydro-14H-5,3-(azenometheno)tripyrazolo[3,4-f:3′,4′-j:4″,3″-n][1,4]oxazacyclopentadecin-14-yl]propan-1-ol], the IC50 in assay [1] turned out to be 0.00029 µM; in assay [2] it was 0.00054 µM; in assay [3], 0.0007 µM.
Consider `Cc1nn(C)c2c1-c1cc3c(n[nH]c3c(C)n1)/C=C/c1cnn(CCO)c1CN(C1CC1)C[C@H](C)O2` [Ex. 133, 2-[(10S,17E)-12-cyclopropyl-6,8,10,20-tetramethyl-2,8,10,11,12,13-hexahydro-14H-5,3-(azenometheno)tripyrazolo[3,4-f:3′,4′-j:4″,3″-n][1,4]oxazacyclopentadecin-14-yl]ethan-1-ol], for which the half-inhibitory concentration (IC50) in assay [1] came out at 0.00887 µM; in assay [2] it was 0.0343 µM; in assay [3], 0.0405 µM.
Regarding `CCOc1nn(C)c2c1/C=C/c1n[nH]c3c(C)nc(cc13)-c1c(C)nn(C)c1O[C@@H](C)CN(C(=O)CC)C2` [Ex. 135, 1-[(10S,17E)-16-ethoxy-6,8,10,14,20-pentamethyl-2,8,10,11,13,14-hexahydro-12H-5,3-(azenometheno)tripyrazolo[3,4-f:3′,4′-j:4″,3″-n][1,4]oxazacyclopentadecin-12-yl]propan-1-one], the IC50 in assay [1] was found to be 0.0738 µM; in assay [2] it was 0.116 µM.
As to `CCOc1nn(C)c2c1/C=C/c1n[nH]c3c(C)nc(cc13)-c1c(C)nn(C)c1O[C@@H](C)CN(C(=O)C1CC1)C2` [Ex. 136, cyclopropyl[(10S,17E)-16-ethoxy-6,8,10,14,20-pentamethyl-2,8,10,11,13,14-hexahydro-12H-5,3-(azenometheno)tripyrazolo[3,4-f:3′,4′-j:4″,3″-n][1,4]oxazacyclopentadecin-12-yl]methanone], the IC50 was 0.0344 µM in assay [1], 0.067 µM in assay [2] and 0.266 µM in assay [3].
Regarding `CCOc1nn(C)c2c1/C=C/c1n[nH]c3c(C)nc(cc13)-c1c(C)nn(C)c1O[C@@H](C)CN(C(=O)C(C)C)C2` [Ex. 137, 1-[(10S,17E)-16-ethoxy-6,8,10,14,20-pentamethyl-2,8,10,11,13,14-hexahydro-12H-5,3-(azenometheno)tripyrazolo[3,4-f:3′,4′-j:4″,3″-n][1,4]oxazacyclopentadecin-12-yl]-2-methylpropan-1-one], the IC50 in assay [1] is 0.0907 µM; in assay [2], 0.113 µM.
Take `COCc1nn(C)c2c1-c1cc3c(n[nH]c3c(C)n1)/C=C/c1cnn([C@@H](C)CO)c1CN(C1CC1)C[C@H](C)O2` [Ex. 139, (2S)-2-[(10S,17E)-12-cyclopropyl-6-(methoxymethyl)-8,10,20-trimethyl-2,8,10,11,12,13-hexahydro-14H-5,3-(azenometheno)tripyrazolo[3,4-f:3′,4′-j:4″,3″-n][1,4]oxazacyclopentadecin-14-yl]propan-1-ol]: the IC50 in assay [1] worked out at 0.00082 µM; in assay [2], 0.00435 µM; in assay [3], 0.429 µM.
For `COCc1nn(C)c2c1-c1cc3c(n[nH]c3c(C)n1)/C=C/c1cnn([C@@H](C)CO)c1CN(C1CC1)[C@H](C)CO2` [Ex. 140, (2S)-2-[(11R,17E)-12-cyclopropyl-6-(methoxymethyl)-8,11,20-trimethyl-2,8,10,11,12,13-hexahydro-14H-5,3-(azenometheno)tripyrazolo[3,4-f:3′,4′-j:4″,3″-n][1,4]oxazacyclopentadecin-14-yl]propan-1-ol], the IC50 turned out to be 0.0061 µM in assay [1] and 0.0299 µM in assay [2].
As to `COCc1nn(C)c2c1-c1cc3c(n[nH]c3c(C)n1)/C=C/c1cnn(C)c1CN(C(=O)CCN(C)C)C[C@H](C)O2` [Ex. 143, 3-(dimethylamino)-1-[(10S,17E)-6-(methoxymethyl)-8,10,14,20-tetramethyl-2,8,10,11,13,14-hexahydro-12H-5,3-(azenometheno)tripyrazolo[3,4-f:3′,4′-j:4″,3″-n][1,4]oxazacyclopentadecin-12-yl]propan-1-one], the IC50 in assay [1] is 0.00909 µM; in assay [2] it was 0.0216 µM; in assay [3], 0.519 µM.
For `CCOc1nn([C@@H](C)CO)c2c1/C=C/c1n[nH]c3c(C)nc(cc13)-c1c(C)nn(C)c1O[C@@H](C)CN(CC)C2` [Ex. 145, (2S)-2-[(10S,17E)-16-ethoxy-12-ethyl-6,8,10,20-tetramethyl-2,8,10,11,12,13-hexahydro-14H-5,3-(azenometheno)tripyrazolo[3,4-f:3′,4′-j:4″,3″-n][1,4]oxazacyclopentadecin-14-yl]propan-1-ol], the IC50 in assay [1] worked out at 0.00024 µM; in assay [2] it was 0.00037 µM; in assay [3], 0.00058 µM.
